Measurements published in publication PMC10327518 (Journal of Enzyme Inhibition and Medicinal Chemistry, 2023).
Values joined by “and” are separate entries in the source; they are usually repeats but may differ in a detail not shown here. Identical values can stand only once. Like-named read-outs stand apart in the source and are kept apart here.

Assays:
[1] = biological target: T1, eqBuChE (equine serum BuChE) (Equus caballus, UniProt P81908); test: biochemical; settings: for inhibition at 25 µM: read-out: Inhibition percent rate eqBuChE; for SI: SI = IC50 (AChE)/IC50 (BuChE)
T1 construct: purchased Sigma-Aldrich Co; host or cells: equine serum (natural source)
Method: (§1) 2.1 Inhibition experiments of AChE and BuChE. The modified Ellman method was
(§2) performed to test the AChE and BChE inhibitory ability of the compounds, using
(§3) eeAChE and eqBChE (Sigma-Aldrich Co.). […]

[2] = biological target: T2, eeAChE (electric eel AChE) (Electrophorus electricus, UniProt O42275); test: biochemical; settings: for inhibition at 25 µM: read-out: Inhibition percent rate eeAChE
T2 construct: purchased Sigma-Aldrich Co; host or cells: electric eel (natural source)
Method: as §1, §2, §3

Plasma stability = type: in vitro ADME; settings: rat, n = 3, read-out: t1/2 in blood plasma (converted)
Method: (3) The stability of compound was performed in rat plasma.
mg/mL) were dissolved in DMSO, and the reaction (10 μg/mL, n = 3) was prepared
by mixing 198 μL plasma with 2 μL compounds solution, then incubated in 37 ◦C and
stopped by adding 600 μL methanol at time of 0, 0.5, 1, 1.5, 2 and 3 h, followed by
centrifugation at 13,000 rpm for 10 min at 4 °C. The supernatant was dried and
redissolved in 100 μL methanol. After centrifugation, the supernatant was analyzed
by UPLC-MS/MS. The stability data was presented as remaining percentage vs time.

[3] = Rat liver microsomes stability; type: in vitro ADME; settings: n = 3, read-out: t1/2 in rat liver microsomes
Method: microsomes was purchased from Dalian Meilun Biotechnology Co., Ltd, DaLian,
China. Briefly, solution A (10 mL) contained G-6-P-Na2 (200 mg), NADPNa2 (200
G-6-P-DH (1000 U), Na-Citrate2 (200 mg), and H2O was used as a solvent. NADPH
solution (1 mM) was composed by solution A and solution B (v/v = 5:1). Compound
was dissolved in DMSO to obtain 1 mg/mL stock solution. Rat liver microsomes was
added to compound solution (the final concentration of compound and rat liver
microsomes was 10 μg/mL and 0.5 mg/mL, respectively) (n = 3). The reaction was
started by the addition of NADPH. The total mixture (200 μL) was incubated at 37 °C.
Cold methanol (600 μL) was added at 0, 5, 15, 20, 30, 45 and 60 min , respectively, to
stop the reaction. Samples were centrifuged at 13000 rpm fo r 10 min at 4 °C, and 100
μL supernatant was removed and analyzed by UPLC-MS/MS. The stability results
were presented as % remaining vs. time.

[4] = tested on: Aβ25-35-induced PC12 cell injury; test: cells; settings: Rattus norvegicus, PC-12, read-out: PC12 cells viability
Excerpt: (§4) 2.3 Neuroprotective effects on Aβ25-35-induced PC12 cells injury.
(§5) (1) Materials and reagents. PC12 cell (Purchased from the Cell Bank of Shanghai
(§6) Institute of Cell Biology, Chinese Academy of Sciences),
(§7) DME H-21 4.5g/Liter Glucose(Gibco), Fetal bovine serum (Vicente),
(§8) cellcountingkit-8, CCK8(Shanghai Biyuntian Biotechnology Co. , Ltd), 1%
(§9) penicillin-streptomycin (Double antibody, cellmax), Double antibody (Beijing
(§10) Co., Ltd), a phosphate -buffered solution , (PBS, Beijing Solebao Technology Co., Ltd),
(§11) (2) Istrument. Cell culture incubator(Thermo Scientific), Ultra-clean
(§12) workbench(Jiangsu Sujing Group Co., Ltd), Inverted phase-contrast fluorescence
(§13) microscope(Japan Nikon Corporation), Varioska full-wavelength multifunction
(§14) microplate reader(Thermo Scientific), Digital display constant temperature water bath
(§15) pot(Bangsi Instrument Technology Co., Ltd), 1/100,000 electronic balance(Shanghai
Jinghai Instrument Co., Ltd).
(§16) In this experiment, the cell viability was detected using CCK-8 kit and
(§17) (3) PC12 Cell complete medium formulation. Recover PC12 cells, use 10% fetal
(§18) bovine serum 50mL, 5% equine serum 25mL and 1% penicillin mixture 5mL, and
(§19) finally add DMEM high-sugar medium solution to 500mL, that is, to obtain.
(§20) (4) PC12 Cell Recover. Quickly remove the cells from the -80 °C freezer, shake
in a 37 °C water bath pot to dissolve quickly, disinfect the cryopreservation tube and
transfer it to the ultra-clean table, transfer the cryopreservation in the cryopreservation
tube to a 15 mL centrifuge tube, add 3 mL of complete medium, gently blow well
with a pipette, centrifuge at 1000 *g at room temperature for 5 min, discard the upper
layer of medium, add 4 mL complete medium again, gently blow well and transfer to
the culture flask, transfer to the incubator at 37 °C, 5% CO2, saturation humidity, and
change the liquid every other day.
(5) PC12 Cell Passage. During the logarithmic growth phase of cell growth, add
complete medium to stop digestion, transfer to a 15 mL centrifuge tube, centrifuge at
1000 *g at room temperature for 5 min, discard the upper layer medium, 1:4
(7) Preparation of sample solutions. […]

[5] = tested on: IL-6 production in LPS-stimulated BV-2 cells; test: IL-6 production in LPS-stimulated BV-2 cells (ELISA); type: cell-based; settings: LPS 1 μg/mL
[6] = tested on: scopolamine-induced cognitive dysfunction in mice; test: Step-down passive avoidance task, scopolamine-induced cognitive dysfunction; type: in vivo
Method: The in vivo effects of 5a were determined through the step-down passive avoidance task. […]. page 9: […]
Assay method. The step-down passive avoidance task was employed to investigate
the effects of 5a on scopolamine-induced memory impairment.21,22 Sixty mice were
random divide into six groups. […]

[7] = tested on: NO release in LPS-stimulated BV-2 cells; test: NO release in LPS-stimulated BV-2 cells (Griess method); type: cell-based; settings: 1, 3, and 9 μM; LPS 1 μg/mL (model 31.9 μM)
[8] = Stability in artificial gastrointestinal fluids; type: in vitro ADME; settings: 37 °C
Method: Based on the above data, 5a was chosen to evaluate the stabilities by artificial gastrointestinal solution, blood plasma, and rat liver microsomes.
Cell viability(%) = (Asample-Ablank)/(Acontrol-Ablank) ×100%. Asample, Ablank and Acontrol
medium, or vehicle, respectively.
method described in China Pharmacopoeia (version 2015). The artificial gastric fluid
described above without pepsin and trypsin. Compound 5a (1 mg/mL, n = 3) was
Supernatant was collected by
were processed by GraphPad Prism 8.0 software.
Solution B (25 mL) contained

[9] = tested on: IL-1β production in LPS-stimulated BV-2 cells; test: IL-1β production in LPS-stimulated BV-2 cells (ELISA); type: cell-based
PC12 cells = test: Cytotoxicity on PC12 cells, CCK-8 assay; type: cell-based; settings: at 30 μM
Excerpt: as §4, §5, §6, §7, §8, §9, §10, §11, §12, §13, §14, §15
Jinghai Instrument Co., Ltd).
as §16, §17, §18, §19, §20
in a 37 °C water bath pot to dissolve quickly, disinfect the cryopreservation tube and […]

Kunming mice = test: Acute toxicity (safety profile) in mice; settings: 500 mg/kg, intragastric administration
Method: gender) were supplied by the Center of Experimental Animals of Sichuan Academy of
Chinese Medicine Sciences (eligibility certiﬁcation no. SCXK-Chuan2018-19). Mice
20−22 °C with a relative humidity of 60−70%. Sterile food and water were provided
according to institutional guidelines. Prior to each experiment, mice were fasted
overnight and allowed free access to water.
1000 mg/kg (n = 6 per group) by intragastric administration. After the administration
occasionally thereafter for 14 days for the onset of any delayed effects. All animals
were sacrificed on the 14th day after drug administration and were macroscopically

eqBuChE = biological target: T3, eqBuChE (Equus caballus, UniProt P81908); type: biochemical, equine
T3 construct: purchased Sigma-Aldrich Co; host or cells: equine serum (natural source)
Excerpt: Further, the recovery capability of BuChE inhibitory effect after dilution was monitored by time.
Figure 2.

BV-2 cells = test: Cytotoxicity on BV-2 cells, CCK-8 assay; type: cell-based; settings: at 10 μM
Method: 5a was chosen to evaluate the anti-inflammation property through testing the production of IL-1β, IL-6, and NO in LPS-induced BV-2 cells[25]^,[26]. First of all, the cytotoxicity of 5a was determined through the CCK-8 assay.
2.1 Inhibition experiments of AChE and BuChE. The modified Ellman method was performed to test the AChE and BChE inhibitory ability of the compounds, using eeAChE and eqBChE (Sigma-Aldrich Co.). The detailed procedure referenced our […]
2.2 Anti-inflammatory property. BV-2 cells were cultured in DMEM containing 10% fetal bovine serum, 100 U/mL penicillin, 100 U/mL streptomycin, and 1% nonessential amino acid at 37℃ with 5% CO2.
BV-2 cells in logarithmic growth stage were digested and centrifuged, and then resuspended in DMEM medium containing 1% penicillin-streptomycin and 10% fetal bovine serum. The cells was adjusted to 1.2 × 10^4 cells/well, and then seeded evenly in 96-well cell culture plates. The cells were incubated for 36 h at 37℃ with 5% CO2. […]
BV-2 cells (2 × 10^5 cells/well) were seeded in a 24-well cell culture plates. […] The content of NO in cell culture supernatant was determined by Griess method, and the levels of cytokines IL-6 and IL-1β in cell culture supernatant were determined by IL-6 ELISA kit and IL-1β ELISA kit, respectively.

cholinesterase = biological target: cholinesterase; design: method as in PMID 11429429; settings: read-out: IC50 anticholinesterase activity; cited from earlier work
[10] = mean ± SD, read-out: IC50 ± SD eqBuChE
[11] = mean ± SD, read-out: IC50 ± SD eeAChE

T2 sequence (O42275 24-633): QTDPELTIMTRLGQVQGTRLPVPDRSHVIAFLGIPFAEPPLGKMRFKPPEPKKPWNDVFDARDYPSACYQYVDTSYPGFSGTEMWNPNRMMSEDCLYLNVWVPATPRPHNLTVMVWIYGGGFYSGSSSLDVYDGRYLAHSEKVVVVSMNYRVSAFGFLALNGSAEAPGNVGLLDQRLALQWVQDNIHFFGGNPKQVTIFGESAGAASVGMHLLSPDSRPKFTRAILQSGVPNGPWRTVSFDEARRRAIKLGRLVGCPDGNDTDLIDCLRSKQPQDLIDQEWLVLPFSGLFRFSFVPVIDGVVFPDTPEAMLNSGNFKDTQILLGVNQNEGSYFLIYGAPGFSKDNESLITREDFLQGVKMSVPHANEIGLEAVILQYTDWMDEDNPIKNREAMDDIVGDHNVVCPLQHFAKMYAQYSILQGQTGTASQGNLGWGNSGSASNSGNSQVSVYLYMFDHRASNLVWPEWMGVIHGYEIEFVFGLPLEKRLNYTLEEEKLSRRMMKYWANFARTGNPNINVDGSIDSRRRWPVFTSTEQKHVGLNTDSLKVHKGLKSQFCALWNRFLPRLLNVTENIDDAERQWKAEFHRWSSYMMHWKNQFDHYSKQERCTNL
T3 sequence (P81908 whole entry): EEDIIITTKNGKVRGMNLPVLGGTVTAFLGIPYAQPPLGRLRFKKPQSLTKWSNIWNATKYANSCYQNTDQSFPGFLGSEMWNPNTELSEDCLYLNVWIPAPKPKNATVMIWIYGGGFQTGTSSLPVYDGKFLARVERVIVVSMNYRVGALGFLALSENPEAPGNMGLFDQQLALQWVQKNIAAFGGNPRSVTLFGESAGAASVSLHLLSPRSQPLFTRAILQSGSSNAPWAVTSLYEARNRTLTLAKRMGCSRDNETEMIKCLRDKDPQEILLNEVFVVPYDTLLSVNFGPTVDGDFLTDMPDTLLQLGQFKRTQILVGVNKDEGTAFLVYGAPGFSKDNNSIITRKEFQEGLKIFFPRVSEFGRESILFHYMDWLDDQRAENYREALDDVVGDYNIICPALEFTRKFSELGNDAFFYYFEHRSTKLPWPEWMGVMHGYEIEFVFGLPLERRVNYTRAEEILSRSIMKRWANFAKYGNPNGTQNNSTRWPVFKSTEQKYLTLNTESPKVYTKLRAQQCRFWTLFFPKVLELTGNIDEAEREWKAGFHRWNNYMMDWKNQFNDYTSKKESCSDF
T1 sequence (P81908 whole entry): as above

SMILES: O=C(O)c1ccc(O)cc1O [Compound 1a, 2,4-dihydroxybenzoic acid]
- inhibition at 25 µM [1]: 25.8 ± 0.93%
- inhibition at 25 µM [2]: 16.3 ± 0.17%

SMILES: O=C(O)c1cc(O)ccc1O [Compound 1b, 2,5-dihydroxybenzoic acid]
- inhibition at 25 µM [1]: 18.2 ± 0.67%
- inhibition at 25 µM [2]: 20.6 ± 1.2%

SMILES: CN(C)C(=O)Oc1ccc(C(=O)N2CCC(Cc3ccccc3)CC2)c(OC(=O)N(C)C)c1 [Compound 5a, 4-(4-Benzylpiperidine-1-carbonyl)-1,3-phenylene bis(dimethylcarbamate)]
- half-life at 10 μg/mL (Plasma stability): 3.25 h
- IC50 [1]: 0.53 ± 0.01 µM
- SI [1]: 14.7
- IC50 [2]: 7.8 ± 0.36 µM
- half-life at 10 μg/mL [3]: 0.32 h
- viability at 1 µM [4]: 61.7%
- viability at 3 µM [4]: 68.6%
- viability at 9 µM [4]: 83.3%
- Level of IL-6 ([5]; 5a 3 μM): 505.3 pg/mL
- Level of IL-6 ([5]; 5a 9 μM): 971.1 pg/mL
- Step-down latency ([6]; 5a 1.23 mg/kg, scopolamine 2.0 mg/kg): 140.1 s
- Step-down latency ([6]; 5a 2.45 mg/kg, scopolamine 2.0 mg/kg): 77.8 s
- Step-down latency ([6]; 5a […], scopolamine 2.0 mg/kg): 105.2 s
- Release volume of NO [7]: remarkably declined
- Residual amount ([8]; after 8 h incubation in artificial gastric juice): 95.6%
- Residual amount ([8]; after 8 h incubation in artificial intestinal juice): 110.6%
- Residual amount ([8]; after 8 h incubation in blank gastric juice): 99.5%
- Residual amount ([8]; after 8 h incubation in blank intestinal juice): 97.5%
- Level of IL-1β ([9]; 5a 1 μM, LPS 1 μg/mL (model 302.7 pg/mL)): 67.2 pg/mL
- Level of IL-1β ([9]; 5a 3 μM, LPS 1 μg/mL): 90.9 pg/mL
- Level of IL-1β ([9]; 5a 9 μM, LPS 1 μg/mL): 163.4 pg/mL
- Cytotoxicity on PC12 cells (PC12 cells): no obvious cytotoxicity
- Abnormal behaviour (safety profile) (Kunming mice): did not present abnormal behaviour
- BuChE activity recovered (eqBuChE; 0.1 × IC50, at 120 min, Figure 2(B)): 63.9%
- BChE activity (% control) (eqBuChE; 1*IC50, Figure 2(A)): 48.6 % control
- eqBuChE activity restored (eqBuChE; after dilution to 0.1 × IC50, text on Figure 2(A)): no significant recovery
- BChE activity (% control) (eqBuChE; diluted to 0.1*IC50, Figure 2(A)): 46.7 % control
- Type of inhibition (reversibility) (eqBuChE; from recovery after dilution): pseudo-irreversible
- Cytotoxicity on BV-2 cells (BV-2 cells): did not produce significant cytotoxicity

SMILES: CCN(C)C(=O)Oc1ccc(C(=O)N2CCC(Cc3ccccc3)CC2)c(OC(=O)N(C)CC)c1 [Compound 5b, 4-(4-Benzylpiperidine-1-carbonyl)-1,3-phenylene bis(ethyl(methyl)carbamate)]
- IC50 [1]: 2.6 ± 1.8 µM
- SI [1]: 2.4
- IC50 [2]: 6.3 ± 0.41 µM

SMILES: CC(C)N(C(=O)Oc1ccc(C(=O)N2CCC(Cc3ccccc3)CC2)c(OC(=O)N(C(C)C)C(C)C)c1)C(C)C [Compound 5c, 4-(4-Benzylpiperidine-1-carbonyl)-1,3-phenylene bis(diisopropylcarbamate)]
- SI [1]: 0.66
- IC50 [1, 10]: 10.8 ± 0.56 µM
- IC50 [2, 11]: 7.1 ± 0.23 µM

SMILES: O=C(Oc1ccc(C(=O)N2CCC(Cc3ccccc3)CC2)c(OC(=O)N2CCCC2)c1)N1CCCC1 [Compound 5d, 4-(4-Benzylpiperidine-1-carbonyl)-1,3-phenylene bis(pyrrolidine-1-carboxylate)]
- SI [1]: 2.6
- IC50 [1, 10]: 8.7 ± 0.93 µM
- IC50 [2, 11]: 22.3 ± 1.8 µM

SMILES: O=C(Oc1ccc(C(=O)N2CCC(Cc3ccccc3)CC2)c(OC(=O)N2CCOCC2)c1)N1CCOCC1 [Compound 5e, 4-(4-Benzylpiperidine-1-carbonyl)-1,3-phenylene bis(morpholine-4-carboxylate)]
- SI [1]: 1.4
- IC50 [1, 10]: 13.1 ± 0.72 µM
- IC50 [2, 11]: 18.3 ± 0.87 µM

SMILES: CN(C)C(=O)Oc1ccc(OC(=O)N(C)C)c(C(=O)N2CCC(Cc3ccccc3)CC2)c1 [Compound 5f, 2-(4-Benzylpiperidine-1-carbonyl)-1,4-phenylene bis(dimethylcarbamate)]
- IC50 [1]: 16.3 ± 0.86 µM
- SI [1]: 0.32
- IC50 [2]: 5.2 ± 0.35 µM

SMILES: CCN(C)C(=O)Oc1ccc(OC(=O)N(C)CC)c(C(=O)N2CCC(Cc3ccccc3)CC2)c1 [Compound 5g, 2-(4-Benzylpiperidine-1-carbonyl)-1,4-phenylene bis(ethyl(methyl)carbamate)]
- IC50 [1]: 13.5 ± 0.52 µM
- SI [1]: 0.36
- IC50 [2]: 4.9 ± 0.68 µM

SMILES: CC(C)N(C(=O)Oc1ccc(OC(=O)N(C(C)C)C(C)C)c(C(=O)N2CCC(Cc3ccccc3)CC2)c1)C(C)C [Compound 5h, 2-(4-Benzylpiperidine-1-carbonyl)-1,4-phenylene bis(diisopropylcarbamate)]
- SI [1]: 0.49
- IC50 [1, 10]: 16.7 ± 1.2 µM
- IC50 [2, 11]: 8.2 ± 0.67 µM

SMILES: COc1cc2c(cc1OC)C(=O)C(CC1CCN(Cc3ccccc3)CC1)C2 (stereo not drawn) [Donepezil, donepezil, reference compound]
- Step-down latency ([6]; donepezil 2.0 mg/kg, scopolamine 2.0 mg/kg (model 42.1 s)): 144.3 s

SMILES: CCN(C)C(=O)Oc1cccc([C@H](C)N(C)C)c1 [Rivastigmine, rivastigmine, reference compound]
- BChE activity (% control) (eqBuChE): 53.2 % control and 49.8 % control
- BuChE activity recovered (eqBuChE): 68.7%
- Type of inhibition (reversibility) (eqBuChE): pseudo-irreversible
- eqBuChE activity restored (eqBuChE): no significant recovery

SMILES: O=C(O)c1ccccc1O [SA, Salicylic acid]
- IC50 (cholinesterase): 346 µM
